The values that follow come from publication PMC9611048, “Rapid Simultaneous Determination of Three Synthetic Cannabinoids in Urine and Plasma of Rats Using Ultra-High Performance Liquid Chromatography Tandem Mass Spectrometry” (Toxics, 2022).

The nature of data set [1]: Determination of synthetic cannabinoids in rat urine by LC-MS/MS after dosing. Type of data set: in vivo. The note with it: for concentration at 2 h / concentration at 4 h / concentration at 8 h / concentration at 24 h / concentration at 48 h / concentration at 72 h: male, Sprague-Dawley, intravenous; for detection window: rat, the dose for the tail vein was 1 mg/kg. As for the experimental part: (§1) The Sprague–Dawley male rats (n = 12, 6 weeks, weighing 190–210 g) were obtained from Zhejiang Academy of Medical Sciences (Hangzhou, Zhejiang, China) and acclimatized for 1 week before exposure in the experimental room (temperature 23 ± 2 ℃, humidity 55 ± 10%, 12 h light–dark cycle). After 1-week adaptation, rats were fasted for 16 h before […]. The rats were randomly allocated to 3 groups, the JWH-122, 5F-AMB, and AMB-PUBINACA group, while the doses were all 1 mg/kg bw/day by tail vein injection. The urine samples were collected at 2 h, 4 h, 8 h, and 24 h during the initial 24 h and every 24 h during the next 48 h. The blood samples were collected from the abdominal aorta. Finally, urine samples and blood samples were obtained from each rat and stored at −80 °C. All the above animal experimental procedures were approved by the Zhejiang Center of Laboratory Animals Welfare and Ethical Review Committee (Approval ID: ZJCLA-IACUC-20100005; Hangzhou, China).
(§2) In this experiment, extraction conditions of three synthetic cannabinoids in rat plasma and urine were optimized, and the detailed parameters are shown in Table 1. Briefly, 100 μL of plasma sample was transferred into a centrifuge tube with 100 μL of acetonitrile and 500 μL of methanol and then vortexed for 6 min. Finally, the supernatant was centrifuged at 12,000 rpm for 10 min then filtered through a 0.22 μm cellulose filter. Solid phase extraction (SPE) is a common pretreatment method for the synthesis of cannabinoids in urine. The urine sample was extracted by SPE. The SPE cartridges were conditioned with 3 mL of methanol followed by 6 mL of water. Amounts of 1.6 mL of acetonitrile and water were added to 400 µL of urine, mixed uniform. After sample loading, the cartridges were respectively washed with 3 mL of 5% methanol, discard wash. The extract was eluted via 4 mL of methanol and evaporated to dryness under a stream of nitrogen at 40 ℃.
The AB SCIEX ExionLCTM0AD XR high-performance liquid chromatograph system coupled with the SCIEX QTRAP 6500^+ triple quadrupole/linear ion trap mass spectrometer system (AB SCIEX, Milford, MA, USA) was used for analysis. Chromatographic separation was carried out using a Waters UPLC HSS T3 (150 × 2.1 mm, 1.8 μm) column at 40 °C;. Injection volume was 1 μL. The mobile phase comprised 0.1% formic acid in water (A) and acetonitrile (B) at a flow rate of 0.3 mL/min. Gradient conditions were set as follows: 10% B (1 min), to 100% B (in 6 min), hold 100% B (4 min), to 10% B (in 0.1 min), and hold (1.9 min).
The separated analytes were quantified using an AB SCIEX 6500^+ quadrupole ion trap mass spectrometer (QTRAP MS) under the multiple reaction monitoring (MRM) mode with […] ion channels (Table 2). The mass spectrometry parameters were set as follows: curtain gas, 35 psi; collision gas, medium; ion spray voltage, 5500 V; source temperature, 550 ℃; nebulizing gas, 50 psi; heater gas, 50 psi. The HPLC-QTRAP-MS data were converted to SCIEX OS 1.4.0.18067 (SCIEX, Toronto, QUE, CA) for qualitative and quantitative analysis.

Data set [2] is described as follows: Determination of synthetic cannabinoids in rat plasma by LC-MS/MS after dosing. The data set is classed as in vivo. The note with it: 1 mg/kg tail vein injection; for concentration at 72 h: male, Sprague-Dawley, intravenous. As for the experimental part:
as §1
as §2, with “After sample loading, the cartridges were respectively washed with 3 mL of 5% methanol, discard wash. The extract was eluted via 4 mL of methanol and evaporated to dryness under a stream of nitrogen at 40 ℃.” left out
The separated analytes were quantified using an AB SCIEX 6500^+ quadrupole ion trap mass spectrometer (QTRAP MS) under the multiple reaction monitoring (MRM) mode with negative ion channels (Table 2). […] The HPLC-QTRAP-MS data were converted to SCIEX OS 1.4.0.18067 (SCIEX, Toronto, QUE, CA) for qualitative and quantitative analysis.

[3] abbreviates: rat urine, 1 mg/kg tail vein injection.
Setting [4] is: rat urine, 72 h, 1 mg/kg tail vein injection.

For the molecule `CCCCCn1cc(C(=O)c2ccc(C)c3ccccc23)c2ccccc21` [JWH-122, 4-methylnaphthalen-1-yl-(1-pentylindol-3-yl) methanone], in data set [1] (setting [3]), the concentration at 2 h was 0.2 ng/mL, the concentration at 4 h stood at 0.12 ng/mL, the concentration at 8 h came to 0.09 ng/mL and the concentration at 24 h amounted to 0.06 ng/mL. Moreover, in data set [1] (setting [3]), the concentration at 48 h worked out at 0.02 ng/mL. In data set [1] (setting [4]), this molecule returned a concentration at 72 h of 0.01 ng/mL. Further, the detection window in data set [1] lay in the range of 2 to 3 days. This molecule showed a concentration at 72 h in data set [2] of 0.08 ng/mL.
In data set [1] (setting [3]), `COC(=O)[C@@H](NC(=O)c1nn(CCCCCF)c2ccccc12)C(C)C` [5F-AMB, methyl (1-(5-fluoropentyl)-1H-indazole-3-carbonyl)-L-valinate] gave a concentration at 2 h of 8.68 ng/mL, a concentration at 4 h of 1.11 ng/mL, a concentration at 8 h of 0.72 ng/mL and a concentration at 24 h of 0.14 ng/mL. Also, the concentration at 48 h in data set [1] (setting [3]) was 0.03 ng/mL. The molecule further displayed a concentration at 72 h in data set [1] (setting [4]) of 0.01 ng/mL. The detection window in data set [1] was 2 to 3 days. Moreover, the “Plasma Concentration 72 h” value in data set [2] is “not detected”.
On to `COC(=O)C(NC(=O)c1nn(Cc2ccc(F)cc2)c2ccccc12)C(C)C` (stereo not drawn) [AMB-FUBINACA, methyl 2-(1-(4-fluorobenzyl)-1Hindazole-3-carboxamido)-3-methylbutanoate], for which, in data set [1] (setting [3]), the concentration at 2 h came to 3.38 ng/mL, the concentration at 4 h came to 0.41 ng/mL, the concentration at 8 h came to 0.19 ng/mL and the concentration at 24 h is 0.1 ng/mL. The molecule also had a concentration at 48 h in data set [1] (setting [3]) of 0.03 ng/mL. Besides, in data set [1] (setting [4]), the “Urine Concentration 72 h” value is reported as “not detected”. The molecule also yielded a detection window in data set [1] of 2 to 3 days. The concentration at 72 h in data set [2] came out at 0.05 ng/mL.
